Experimental data as given in patent publication EP2576536B1, “HAEMATOPOIETIC-PROSTAGLANDIN D2 SYNTHASE INHIBITORS” (priority 2010, dated 2011).

Columns and labels:
[1] = test system: mouse primary bone marrow-derived macrophages (BMM); experiment: LPS-inducible PGE2, 6-keto PGF1α and TXB2 production from BMM (EIA), specificity; format: cell-based; conditions: 24 h, 0-100 µM
Description: The human megakaryocytic cell line MEG-01S was obtained from the American Type Culture Collection. MEG-01S were maintained in the same media as for BMM, supplemented with 1 mM Sodium Pyruvate (Invitrogen).
BMM were seeded overnight at 2 x 10^5 cells/ml in 24 well plates before treatment with compound at either 10 µM or 0.1 - 100 µM for 24 h in the presence or absence of lipopolysaccharide (LPS) from Salmonella Minnesota (Sigma-Aldrich) at a final concentration of 10 ng/ml. MEG-01S were seeded at 2 x 10^5 cells/ml and stimulated with PMA (Phorbol 12-myristate 13-acetate) (Sigma-Aldrich) at a final concentration of 0.1 µM for 16 h.

BMM = BMM cell viability by MTT assay; format: cell-based, mouse; conditions: 10, 30, 100 µM, LPS, 24 h (Figure 1B)
Description: (§1) All bone marrow-derived macrophages (BMM) were obtained by culturing bone marrow cells from the femurs of 6 to 8 week old C57BL/6 male mice in RPMI 1640 medium (Invitrogen Life Technologies, Carlsbad, CA, USA) supplemented with 10 % Fetal calf serum (Invitrogen) 20 U/ml penicillin and 20 µg/ml streptomycin (Invitrogen), 2 mM L-glutamine (Glutamax-1, Invitrogen) in the presence of 10^4 U/ml (100 ng/mL) recombinant human CSF-1 (a gift from Chiron, Emeryville, CA) on bacteriological plastic plates for 7 days. The human megakaryocytic cell line MEG-01S was obtained from the American Type Culture Collection. MEG-01S were maintained in the same media as for BMM, supplemented with 1 mM Sodium Pyruvate (Invitrogen).
(§2) Known inhibitors 1 and 2, along with compound 3, were used to treat BMM at three doses (10, 30, 100 µM) in the presence of LPS for 24 h and cell viability was measured by MTT assay. BMM were seeded at 1 x 10^5 cells/well in 96 well plates and treated for 24 h with LPS (10 ng/ml) and compounds at 10, 30 and 100 µM. MEG-01S were PMA differentiated overnight before compounds were added for a further 24 h at 10, 30 and 100 µM. Cell viability was measured by MTT (Sigma-Aldrich) assay as described previously (Irvine, FASEB J, 2006).

[2] = test system: MEG-01S human megakaryocytes; experiment: A23187-inducible PGD2 production in PMA-differentiated MEG-01S (EIA); format: cell-based; conditions: at 100 µM (Figure 3A)
Description: as §1
BMM were seeded overnight at 2 x 10^5 cells/ml in 24 well plates before treatment with compound at either 10 µM or 0.1 - 100 µM for 24 h in the presence or absence of lipopolysaccharide (LPS) from Salmonella Minnesota (Sigma-Aldrich) at a final concentration of 10 ng/ml. […] Supernatants were collected and samples were analysed for PGD2 using Prostaglandin D2 Mox Express EIA kits, PGE2 using Prostaglandin E2 Express EIA kits, the prostacyclin derivative 6-keto PGF1α using the 6-keto Prostaglandin F1α EIA Kit and the Thromboxane A2 derivative TXB2 using the Thromboxane B2 Express EIA kit (Cayman Chemical) according to the manufacturer's instructions. […]

MEG-01S = MEG-01S cell viability by MTT assay; format: cell-based, human; conditions: 24 h treatment, 0-100 µM (Figure 3B)
Description: as §1
as §2, with “MEG-01S were PMA differentiated overnight before compounds were added for a further 24 h at 10, 30 and 100 µM.” left out
The effect of the compounds on MEG-01S cell viability was measured by MTT assay after 24 h treatment across the concentration range 0 - 100 µM of compounds (Figure 3B). […]

H-PGDS = target: T1, H-PGDS (Homo sapiens, UniProt O60760); experiment: H-PGDS catalyzed conjugation of GSH and CDNB, enzyme inhibition assay; format: biochemical; conditions: for inhibition at 50 µM / I[50]: percent inhibition at 50 µM, Mean ± Standard Error of triplicate experiments; for inhibition at 50 µM: read-out: I[50]; for IC50: IC50 ± Standard Error of the Mean, triplicate experiments
T1 construct: made in house; host or cells: Escherichia coli BL21 DE3
T1 sequence (O60760 whole entry): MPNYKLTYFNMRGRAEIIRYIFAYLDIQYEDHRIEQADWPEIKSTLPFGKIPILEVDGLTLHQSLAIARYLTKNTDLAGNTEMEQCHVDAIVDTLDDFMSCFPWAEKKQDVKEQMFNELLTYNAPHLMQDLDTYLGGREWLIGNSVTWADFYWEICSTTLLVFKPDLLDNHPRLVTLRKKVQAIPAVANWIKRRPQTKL
Description: H-PGDS was expressed and purified as described previously (Jowsey, 2001). Briefly, H-PGDS was expressed in Escherichia coli strain BL21 DE3 transformed with the pET17b HPGDS expression construct, grown overnight at 37 °C in 250 ml of Luria-Bertani medium supplemented with 100 µg/ml ampicillin. After 24 h, without induction, bacteria were harvested by centrifugation at 5000 g for 20 min at 4 °C; cell pellets were kept at -70 °C until required. Cells were resuspended in 25 ml of ice-cold phosphate buffered saline (PBS), pH 7.4, containing 1 mM DTT, 0.5 % Triton X-100 and EDTA-free protease inhibitor tablets (F.Hoffmann-La Roche, Dee Why, NSW, Australia), and incubated with rotation for 30 mins at 4 °C. Cells were then lysed by sonication at 90-100 W over 3 x 1 min intervals, while incubated on ice; the lysate clarified by centrifugation at 18000 g for 10 min at 4 °C.
The supernatant was then applied to a GSTPrep FF 16/10 column pre-equilibrated with PBS, pH 7.4, and 1 mM DTT, at 0.4 ml/minute using an AKTA explorer 100 (GE Healthcare, Rydalmere, NSW, Australia), then washed with 5 column volumes of the same buffer at 1 ml/min. Bound H-PGDS was eluted in 5 column volumes of 15 mM reduced glutathione in 50 mM Tris, pH 9.0, at 0.5 ml/min, and dialysed against 100 volumes of 5 mM TrisCl, pH 8.0. The protein was concentrated to 20 mg/ml, as determined by the method of Bradford (Bradford, 1976) using an Amicon Ultra-4 centrifugal filter device (Millipore, North Ryde, NSW, Australia) following manufacturers recommendations. Glycerol was added to a final concentration of 10 % (v/v) prior to storage at -20 °C.
The H-PGDS catalyzed conjugation of GSH and 1-chloro-2,4-dinitrobenzene (CDNB) was used as the biochemical assay for enzyme inhibition. Reactions were performed in 96 well plate format, and product formation was followed at A340 nm over a 10 min internal at 25 °C using a POWERWAVE XS microplate scanning spectrophotometer (Bio-Tek Instruments, Winooski, VT, USA). Reactions were performed in 0.1 M Tris HCl, pH 8.0 containing 2 mM MgCl2, 1 mM CDNB, 2 mM GSH, 2.5 ng/µl purified H-PGDS and 10 % (v/v) ethanol in a 200 µl reaction volume. IC50 values were calculated from rates of conjugation activity determined at eight concentration points bracketing the IC50, where compound solubility allowed, and were corrected for background activity at the same solvent concentrations. All compounds were made up in 100 % DMSO and diluted with 0.1 M Tris HCl, pH 8.0 with 2 mM MgCl2. I50 and IC50 values were determined at a final DMSO composition of no greater than 4 % v/v for all compounds. Non-linear regression analysis and IC50 calculations were performed using GraphPad Prism version 4.0c.
IC50 values were calculated from triplicate experiments, and are presented as IC50 ± Standard Error of the Mean.

| Structure (SMILES) | inhibition at 50 µM (H-PGDS) [%] | IC50 (H-PGDS) [nM] | also measured |
| --- | --- | --- | --- |
| c1ccc(C(OC2CCN(CCCc3nn[nH]n3)CC2)c2ccccc2)cc1 [Compound 1, reference compound] |  |  | differential effect in inhibition of PGD2 versus PGE2, 6-keto PGF1α or TXB2 (selectivity) [1]: no differential effect; BMM cell viability (BMM): modest but significant effects; A23187-inducible PGD2 production [2]: very modest activity; MEG-01S cell viability (MEG-01S): little effect |
| O=C(NC(c1ccccc1)c1ccccc1)c1ccc(-c2cccs2)nc1 [Compound 4, N-benzhydryl-6-(thiophen-2-yl)nicotinamide] | 28.5 |  |  |
| O=C(NCc1ccccc1)c1ccc(-c2cccs2)nc1 [Compound 5, N-benzyl-6-(thiophen-2-yl)nicotinamide] | 99.5 ± 0.8 | 597 ± 1200 |  |
| O=C(c1ccc(-c2cccs2)nc1)N1CCc2ccccc2C1 [Compound 6, (3,4-dihydroisoquinolin-2(1H)-yl)(6-(thiophen-2-yl)pyridin-3-yl)methanone] | 72.3 ± 1.5 |  |  |
| O=C(c1ccc(-c2cccs2)nc1)N1CCC2(CCc3ccccc32)CC1 [Compound 7, (2,3-dihydrospiro[indene-1,4'-piperidin]-1'-yl)(6-(thiophen-2-yl)pyridin-3-yl)methanone] | 91 ± 0.1 | 1970 ± 1200 |  |
| CC(=O)C1(c2ccccc2)CCN(C(=O)c2ccc(-c3cccs3)nc2)CC1 [Compound 8, 1-(4-phenyl-1-(6-(thiophen-2-yl)nicotinoyl)piperidin-4-yl)ethanone] | 58.7 ± 0.8 |  |  |
| O=C(O)c1ccc(CNC(=O)c2ccc(-c3cccs3)nc2)cc1 [Compound 9, 4-((6-(thiophen-2-yl)nicotinamido)methyl)benzoic acid] | 98.3 ± 1.1 | 660 ± 1100 |  |
| CS(=O)(=O)N1CC2(CCN(C(=O)c3ccc(-c4cccs4)nc3)CC2)c2ccccc21 [Compound 10, (1-(methylsulfonyl)spiro[indoline-3,4'-piperidin]-1'-yl)(6-(thiophen-2-yl)pyridin-3-yl)methanone] | 90.4 ± 0.5 | 1230 ± 1100 |  |
| O=C(c1ccc(-c2cccs2)nc1)N1CCC(n2c(=O)[nH]c3ccccc32)CC1 [Compound 11, 1-(1-(6-(thiophen-2-yl)nicotinoyl)piperidin-4-yl)-1H-benzo[d]imidazol-2(3H)-one] | 90.4 ± 0.7 | 1220 ± 1400 |  |
| C[C@H](NC(=O)c1ccc(-c2cccs2)nc1)c1ccc2ccccc2c1 [Compound 12, (S)-N-(1-(naphthalen-2-yl)ethyl)-6-(thiophen-2-yl)nicotinamide] | 99.8 ± 0.3 | 86 |  |
| O=C(c1ccc(-c2cccs2)nc1)N1CCC(N2C(=O)OCc3ccccc32)CC1 [Compound 13, 1-(1-(6-(thiophen-2-yl)nicotinoyl)piperidin-4-yl)-1H-benzo[d][1,3]oxazin-2(4H)-one] |  | 3400 ± 1400 | I[50] (H-PGDS): 87.9 ± 1.1% |
| NC(=O)[C@H](Cc1ccccc1)NC(=O)c1ccc(-c2ccc(C=O)s2)nc1 [Compound 14] | 83.4 ± 1.5 | 1700 ± 1800 |  |
| NC(=O)[C@H](Cc1ccccc1)NC(=O)c1ccc(-c2ccc(C(=O)O)s2)nc1 [Compound 15] |  |  | I[50] (H-PGDS): 19.4 ± 1.4% |
| NC(=O)[C@H](Cc1ccccc1)NC(=O)c1ccc(-c2ccc(Cl)s2)nc1 [Compound 16] | 89.4 ± 4.7 | 1400 ± 1300 |  |
| Cc1ccc(-c2ccc(C(=O)N[C@@H](Cc3ccccc3)C(N)=O)cn2)s1 [Compound 17] | 95 ± 1.1 | 2000 ± 1100 |  |
| CC(=O)c1ccc(-c2ccc(C(=O)N[C@@H](Cc3ccccc3)C(N)=O)cn2)s1 [Compound 18] | 65.5 ± 7.7 | 5100 ± 1100 |  |
| NC(=O)[C@H](Cc1ccccc1)NC(=O)c1ccc(-c2sccc2Cl)nc1 [Compound 19] | 94.8 ± 2.4 | 3200 ± 1600 |  |
| N#Cc1ccc(-c2ccc(C(=O)N[C@@H](Cc3ccccc3)C(N)=O)cn2)s1 [Compound 20] |  |  | I[50] (H-PGDS): 67.9 ± 1.6% |
| Cc1csc(-c2ccc(C(=O)N[C@@H](Cc3ccccc3)C(N)=O)cn2)c1 [Compound 21] | 97.4 ± 0.8 | 380 ± 1100 |  |
| Cc1cc(-c2ccc(C(=O)N[C@@H](Cc3ccccc3)C(N)=O)cn2)sc1C#N [Compound 22] |  |  | I[50] (H-PGDS): 34.6 ± 2.1% |
| Cc1ccsc1-c1ccc(C(=O)N[C@@H](Cc2ccccc2)C(N)=O)cn1 [Compound 23] | 91.6 ± 0.8 | 1870 ± 1100 |  |
| CC(NC(=O)C(Cc1ccccc1)NC(=O)c1ccc(-c2cccs2)nc1)C(N)=O (stereo not drawn) [Compound 24] | 94.6 ± 0.3 | 860 ± 1200 |  |
| Cc1csc(-c2ccc(C(=O)N[C@@H](C)c3ccc4ccccc4c3)cn2)c1 [Compound 25] | 96.9 ± 1 | 180 |  |
